In US9271991B2, “Trimegestone (TMG) for treatment of preterm birth” (Dignity Health, priority 2010, dated 2016):
Several values for one entry are separate records, joined by “and”; a condition that tells them apart may be missing. Equal values may be shown once.

Experiments:
[1] = tested on: pregnant rats (term delivery); test: Delay of term delivery in pregnant rats; format: in vivo, Sprague-Dawley rats; details: pregnant rats
Excerpt: Timed-pregnant Sprague-Dawley rats (200-250 g) from Charles-River Laboratories (Wilmington, Mass., USA) were delivered to our animal care facilities on day 15 of gestation (day 1 being the day when a sperm plug was observed). The animals were housed separately, with free access to food and water and maintained on a constant 12-hour light-dark cycle. Control pregnant rats were spontaneously delivering on day 22 of gestation. The animals were randomly allocated into groups and sacrificed by carbon dioxide inhalation on day 5 postpartum or on day 25 of gestation in the groups with delayed delivery.
Pregnant rats (N=6 per group) were treated, when not otherwise mentioned, from day 20 of gestation until delivery. Single daily treatments were performed at 8 am and twice a day treatments at 8 am and 8 pm. Treatment began daily on day 20 of gestation with vehicles or: a) Topical P4 at various doses (4-30 mg/day, vehicle (v)=fish oil) or topical TMG ([…], v=fish oil; b) Subcutaneous (s.c.) P4 (0.5-4 mg/day, v=sesame oil) or s.c. TMG (0.5-2 mg/day, v=benzyl benzoate (BB) and castor oil (CO), 1:4). Delivery times were observed.
Subcutaneous treatments. All daily injections were by the subcutaneous route (s.c) in […] for the P4 treatments and benzyl benzoate (BB, 1 part): castor oil (CO, 4 parts) for the TMG group. P4 and TMG had dose ranges of 0.5 mg-4 mg per day and 0.5 mg-2 mg per day, respectively. Vehicles only are used in the control groups.
Topical treatments. Topical P4 and TMG (in fish oil and benzyl benzoate:castor oil (1:4), respectively) treatments were applied to the shaved back of the rat twice a day For topical treatments of P4 and TMG, dose range from 2 mg-30 mg per day and 0.005 to 0.5 mg per day, respectively.
Times of delivery of controls and treatment groups were determined as hours after 8 a.m. on day 22 of gestation. […] Delays in delivery less than 80 hours were calculated as less than 100% inhibition. The expulsion of a single pup was noted as delivery. Control groups spontaneously delivered on day 22 of gestation.
The Student's t test was used to compare the treatment groups with its specific control groups to determine the differences in delivery times. A 2-tailed probability value of P<0.05 was considered statistically significant.

[2] = tested on: pregnant guinea pigs (preterm delivery); test: PGE2-induced preterm delivery in pregnant guinea pigs; format: in vivo, Hartley guinea pigs; details: TMG 4 mg/day s.c. days 44-47; PGE2 3 mg/day days 46, 47; sacrifice day 48
Excerpt: Pregnant guinea pigs, another model of pregnancy are also utilized as they more closely resemble the endocrine control of human pregnancy with progesterone levels in pregnancy maintained by the placenta as opposed to the ovaries, which is observed in pregnant rats.
Pregnant Hartley guinea pigs arrived at our facilities at 31-35 days gestation and housed in pairs, with free access to food and water and also maintained on a constant 12-hour light-dark cycle. The animals were euthanized with a combination of xylazine (Gemini; Burns Veterinary Supply Inc, Rockville Center, N.Y.) and ketamine HCL (Ketaset; Fort Dodge Laboratories Inc, Fort Dodge, Iowa). All procedures were approved by the Animal Care and Use Committee of the St. Joseph's Hospital and Medical Center in Phoenix, Ariz.
Pregnant guinea pigs (N=4-6 per group) were allocated into 4 groups (Vehicle (v) only, TMG only, PGE2 only, PGE2+TMG). PGE2 administration (3 mg/day s.c, v=saline) began daily on day 46 to day 47 of gestation. TMG administration (4 mg/day s.c v=BB:CO) began daily on day 44 until day 47 of gestation. All guinea pigs were sacrificed on day 48.

[3] = s.c. single daily treatment from day 20 of gestation
[4] = topical twice a day from day 20 of gestation

| SMILES | dose for complete block of delivery (80 hour delay, 100 percent inhibition), subcutaneous [1, 3] [mg] | dose for complete block of delivery, subcutaneous [1, 3] [mg/day] | dose for complete block of delivery (80 hour delay, 100 percent inhibition), topical [1, 4] [mg] | dose for complete block of delivery, topical [1, 4] [mg/day] | guinea pigs delivered (preterm) / treated, substance alone [2] |
| --- | --- | --- | --- | --- | --- |
| CC(=O)[C@H]1CC[C@H]2[C@@H]3CCC4=CC(=O)CC[C@]4(C)[C@H]3CC[C@]12C [P4, progesterone] | 2 | 2 | 15 | 15 | – |
| CCCCC[C@H](O)/C=C/[C@H]1[C@H](O)CC(=O)[C@@H]1C/C=C\CCCC(=O)O [PGE2, prostaglandin E2] | – | – | – | – | 2/3 and 4/6 |
